# In patent publication US20090017089A1, “Multiple active agents such as anthelmintics sustained release delivery device” (priority 2003, published 2009):
# Columns and labels:
# resistant parasites = details: Farm 4 from Anderson et al, 1991; cited from earlier work
# adult liver fluke = details: oral, Coles & Stafford 2001; cited from earlier work
# immature flukes = details: in vivo; cited from earlier work
# [1] = test system: albendazole resistant Trichostrongylus axei; assay: Trial 1: repeated oral dosing of albendazole in lambs, worm count (abomasa)
# [2] = test system: albendazole resistant Ostertagia Circumcincta; assay: as above
# [3] = test system: albendazole resistant Cooperia spp.; assay: Trial 1: repeated oral dosing of albendazole in lambs, worm count (small intestine)
# [4] = test system: albendazole resistant Nematodirus spp.; assay: as above
# [5] = test system: resistant Ostertagia circumcincta; assay: Trial 3: oral albendazole vs prototype albendazole bolus in adult ewes, worm count (abomasa); details: oral 5.0 mg/kg once
# [6] = test system: resistant Trichostrongylus axei; assay: as above; details: oral 5.0 mg/kg once
# [7] = test system: resistant Haemonchus Contortus; assay: as above; details: oral 5.0 mg/kg once
# resistant Cooperia spp. = assay: Trial 3: oral albendazole vs prototype albendazole bolus in adult ewes, worm count (small intestine); details: oral 5.0 mg/kg once
# [8] = test system: abamectin-resistant Ostertagia circumcincta; assay: Trial 2: repeated oral dosing of abamectin in lambs, worm count; type: in vivo
# [9] = test system: abamectin-resistant Trichostrongylus colubriformis; assay: as above; type: in vivo
# [10] = test system: abamectin-resistant Cooperia spp.; assay: as above; type: in vivo
# [11] = test system: multiple drug resistant Ostertagia circumcincta; assay: Magnum combination bolus trial in sheep, efficacy based on worm counts; type: in vivo; details: single standard oral doses
# Experimental: (§1) This concept has again been tested for the present invention by constructing and testing for efficacy a Magnum bolus releasing 2 actives simultaneously. A prototype sheep bolus designed to release 5 mg/kg of albendazole and 0.18 mg/kg abamectin in a 50 kg sheep was tested against two species of multiple drench resistant parasites. Trial lambs ranged in weight from 48-55.5 kg.
# [12] = test system: multiple drug resistant Trichostrongylus colubriformis; assay: as above; type: in vivo; details: single standard oral doses
# Experimental: as §1
# parasites of goats = details: Pomroy et al, 1992; cited from earlier work
compound,measurement,setting,value
"CCCSc1ccc2nc(NC(=O)OC)[nH]c2c1 [Alb, albendazole]",Efficacy,resistant parasites,73%
same,level of efficacy against adult liver fluke,adult liver fluke,variable and less than desirable
same,efficacy against immature flukes,immature flukes,ineffective
same,% reduction in worm count Trichostrongylus axei,[1]; 1.75 mg/kg for 7 days,87.5%
same,% reduction in worm count Trichostrongylus axei,[1]; 2.5 mg/kg for 7 days,90.2%
same,% reduction in worm count Trichostrongylus axei,[1]; 3.75 mg/kg for 7 days,96.8%
same,% reduction in worm count Trichostrongylus axei,[1]; 5 mg/kg for 7 days,97.6%
same,% reduction in worm count Trichostrongylus axei,[1]; 5 mg/kg once,82.9%
same,% reduction in worm count Ostertagia circumcincta,[2]; 1.75 mg/kg for 7 days,74.9%
same,% reduction in worm count Ostertagia circumcincta,[2]; 2.5 mg/kg for 7 days,57.0%
same,% reduction in worm count Ostertagia circumcincta,[2]; 3.75 mg/kg for 7 days,70.9%
same,% reduction in worm count Ostertagia circumcincta,[2]; 5 mg/kg for 7 days,92.3%
same,% reduction in worm count Ostertagia circumcincta,[2]; 5 mg/kg once,42.7%
same,% reduction in worm count Cooperia spp.,[3]; 1.75 mg/kg for 7 days,57.1%
same,% reduction in worm count Cooperia spp.,[3]; 2.5 mg/kg for 7 days,67.5%
same,% reduction in worm count Cooperia spp.,[3]; 3.75 mg/kg for 7 days,83.3%
same,% reduction in worm count Cooperia spp.,[3]; 5 mg/kg for 7 days,86.9%
same,% reduction in worm count Cooperia spp.,[3]; 5 mg/kg once,36.9%
same,% reduction in worm count Nematodirus spp.,[4]; 1.75 mg/kg for 7 days,58.9%
same,% reduction in worm count Nematodirus spp.,[4]; 2.5 mg/kg for 7 days,69.0%
same,% reduction in worm count Nematodirus spp.,[4]; 3.75 mg/kg for 7 days,88.1%
same,% reduction in worm count Nematodirus spp.,[4]; 5 mg/kg for 7 days,73.9%
same,% reduction in worm count Nematodirus spp.,[4]; 5 mg/kg once,71.2%
same,% reduction in worm count Ostertagia circumcincta,[5],59.3%
same,% reduction in worm count Trichostrongylus axei,[6],91.8%
same,% reduction in worm count Haemonchus Contortus,[7],91.4%
same,% reduction in worm count Cooperia spp.,resistant Cooperia spp.,59.3%
c1ccc([C@H]2CN3CCSC3=N2)cc1 [Levamisole],Efficacy,resistant parasites,88%
CO/N=C1\C[C@]2(C[C@@H]3C[C@@H](C/C=C(\C)C[C@@H](C)/C=C/C=C4\CO[C@@H]5[C@H](O)C(C)=C[C@@H](C(=O)O3)[C@]45O)O2)O[C@H](/C(C)=C/C(C)C)[C@H]1C [Moxidectin],% reduction in worm count Ostertagia circumcincta,[8]; 0.2 mg/kg once,76.3%
same,% reduction in worm count Trichostrongylus colubriformis,[9]; 0.2 mg/kg once,72.5%
same,% reduction in worm count Cooperia spp.,[10]; 0.2 mg/kg once,99.1%
same,Efficacy based on worm counts Ostertagia circumcincta,[11],59.9
same,Efficacy based on worm counts Trichostrongylus colubriformis,[12],90.6
COC(=O)Nc1nc2ccc([S+]([O-])c3ccccc3)cc2[nH]1 (centres unmarked) [oxfendazole],Efficacy,parasites of goats,82%
abamectin,% reduction in worm count Ostertagia circumcincta,[8]; 0.07 mg/kg for 7 days,77.2%
same,% reduction in worm count Ostertagia circumcincta,[8]; 0.113 mg/kg for 7 days,89.3%
same,% reduction in worm count Ostertagia circumcincta,[8]; 0.18 mg/kg for 7 days,96.4%
same,% reduction in worm count Ostertagia circumcincta,[8]; 0.2 mg/kg once,45.0%
same,% reduction in worm count Trichostrongylus colubriformis,[9]; 0.07 mg/kg for 7 days,47.3%
same,% reduction in worm count Trichostrongylus colubriformis,[9]; 0.113 mg/kg for 7 days,55.3%
same,% reduction in worm count Trichostrongylus colubriformis,[9]; 0.18 mg/kg for 7 days,77.1%
same,% reduction in worm count Trichostrongylus colubriformis,[9]; 0.2 mg/kg once,60.7%
same,% reduction in worm count Cooperia spp.,[10]; 0.07 mg/kg for 7 days,99.1%
same,% reduction in worm count Cooperia spp.,[10]; 0.113 mg/kg for 7 days,99.6%
same,% reduction in worm count Cooperia spp.,[10]; 0.18 mg/kg for 7 days,100.0%
same,% reduction in worm count Cooperia spp.,[10]; 0.2 mg/kg once,94.9%
ivermectin,Efficacy,parasites of goats,27%
